Structures can show the parent of a compound that is named as a salt. Where two headings read alike, the source gives them in different places.

In this assay the target is T1, 5-HT2A receptor (Homo sapiens, UniProt P28223).
T1 construct: expressed in transfected cells; host or cells: NIH3T3 cells, pSI expression vector
The experiment in a line: R-SAT functional receptor assay. It counts as cell-based. The following applies: for Emax: 120 h. The method, then: The functional receptor assay, Receptor Selection and Amplification Technology (R-SAT), was used (with minor modifications from that previously described U.S. Pat. No. 5,707,798) to screen compounds for efficacy at the 5-HT2A receptor. Briefly, NIH3T3 cells were grown in 96 well tissue culture plates to 70-80% confluence. Cells were transfected for 12-16 hours with plasmid DNAs using superfect (Qiagen Inc.) as per manufacture's protocols. R-SAT's were generally performed with 50 ng/well of receptor and 20 ng/well of Beta-galactosidase plasmid DNA. All receptor and G-protein constructs used were in the pSI mammalian expression vector (Promega Inc) as described in U.S. Pat. No. 5,707,798. The 5HT2A receptor gene was amplified by nested PCR from brain cDNA using the oligodeoxynucleotides based on the published sequence (see Saltzman et. al. Biochem. Biophys. Res. Comm. 181:1469-78 (1991)). Large-scale transfections, cells were transfected for 12-16 hours, then trypsinized and frozen in DMSO. Frozen cells were later thawed, plated at 10,000-40,000 cells per well of a 96 well plate that contained drug. With both methods, cells were then grown in a humidified atmosphere with 5% ambient CO2 for five days. Media was then removed from the plates and marker gene activity was measured by the addition of the beta-galactosidase substrate ONPG (in PBS with 5% NP-40). The resulting colorimetric reaction was measured in a spectrophotometric plate reader (Titertek Inc.)at […]. All data were analyzed using the computer program XLFit (IDBSm). Efficacy is the percent maximal repression compared to repression by a control compound (ritanserin in the case of 5HT2A). pIC50 is the negative of the log(IC50), where IC50 is the calculated concentration in Molar that produces 50% maximal repression.
Briefly, the 5-HT2A receptor, and the alpha subunit of the guanine nucleotide binding protein Gq were transiently transfected into NIH3T3 cells and assayed using the functional receptor assay, Receptor Selection and Amplification Technology (R-SAT) essentially as disclosed in U.S. Pat. No. 5,707,798. Each compound was screened at seven serially diluted concentrations in triplicate. Data were analyzed using least squares fit analysis with GraphPad Prism (San Diego, Calif.), and are reported normalized to percent response.
R-SAT assays (as described in Example 42) were carried out with cells transfected with receptors (listed below) to determine the receptor selectivity profile for compound 26HCH16D. 5HT2A inverse agonist data (IC50 nM; % efficacy) were derived from detailed dose response curves (7 points in triplicate).
The functional receptor assay, Receptor Selection and Amplification Technology (R-SAT), was used (with minor modifications from that previously described U.S. Pat. No. 5,707,798) to screen compounds for efficacy at the 5-HT2A receptor. The RSAT assay was conducted as described herein.
The functional receptor assay, Receptor Selection and Amplification Technology (R-SAT), was used (with minor modifications from that previously described U.S. Pat. No. 5,707,798, which is incorporated herein by reference in its entirety) to screen compounds for efficacy at the 5-HT2A receptor. The RSAT assay was conducted as described herein.

[1] abbreviates: read-out: Percent Efficacy, compared to ritanserin.
[2] abbreviates: Table 3, read-out: pIC50 (converted).

T1 sequence (P28223 whole entry): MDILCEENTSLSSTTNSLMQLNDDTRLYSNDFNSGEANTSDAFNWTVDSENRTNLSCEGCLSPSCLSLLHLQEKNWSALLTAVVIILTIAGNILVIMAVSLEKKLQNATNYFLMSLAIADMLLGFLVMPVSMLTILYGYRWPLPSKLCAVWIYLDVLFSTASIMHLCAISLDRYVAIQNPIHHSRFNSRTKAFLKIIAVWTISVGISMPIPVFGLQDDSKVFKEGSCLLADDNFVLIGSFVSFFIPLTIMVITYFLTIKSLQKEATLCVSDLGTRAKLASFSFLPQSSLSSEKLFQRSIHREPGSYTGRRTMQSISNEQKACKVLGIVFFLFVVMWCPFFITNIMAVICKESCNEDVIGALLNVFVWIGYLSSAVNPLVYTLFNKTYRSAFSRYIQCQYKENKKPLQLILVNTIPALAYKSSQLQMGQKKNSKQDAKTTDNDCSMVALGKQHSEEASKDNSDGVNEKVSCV

For `CCN1CCC(N(Cc2ccc(C)cc2)C(=O)Cc2ccc(Cl)cc2)CC1` [Example 47AKU-12, 2-(4-Chlorophenyl)-N-(4-methylbenzyl)-N-(1-ethylpiperidin-4-yl)acetamide], under setting [1], the Emax is 112%. In addition, under setting [2], the IC50 is 7.94 nM.

Regarding `COc1ccc(CC(=O)N(Cc2ccc(C)cc2)C2CCN(C3CCC3)CC2)cc1` [Example 47AKU-20, 2-(4-Methoxyphenyl)-N-(4-methylbenzyl)-N-(1-cyclobutylpiperidin-4-yl)acetamide], under setting [1], the Emax amounted to 120%. Further, the IC50 under setting [2] is 10 nM.

Turning to `COc1ccc(CC(=O)N(Cc2ccc(C)cc2)C2CC3CCC(C2)N3C)cc1` (stereo not shown) [Example 47AKU-21, 2-(4-Methoxyphenyl)-N-(4-methylbenzyl)-N-(8-methyl-8-aza-bicyclo[3.2.1]oct-3-yl)-acetamide], the Emax (read-out: Percent Efficacy) was found to be 117%. Also, the IC50 (pIC50, Table 3) was 12.6 nM.

For the compound `Cc1ccc(CN(C(=O)NCc2ccccc2)C2CCN(C)CC2)cc1` [Example 47AKU-22, N-(4-Methylbenzyl)-N-(1-methylpiperidin-4-yl)-N′-benzyl-carbamide], the Emax under setting [1] came out at 117%. In addition, the IC50 under setting [2] was 12.6 nM.

Turning to `COc1ccc(CNC(=O)N(Cc2ccc(C)cc2)C2CCN(C)CC2)cc1` [Example 47AKU-44, N-(4-Methylbenzyl)-N-(1-methylpiperidin-4-yl)-N′-(4-methoxybenzyl)-carbamide], the Emax under setting [1] came out at 112%. For the same compound, the IC50 under setting [2] is 3.16 nM.

As for `COc1ccc(CC(=O)N(Cc2ccc(F)cc2)C2CCN(C)CC2)cc1` [Example 50ELH8, 2-(4-Methoxyphenyl)-N-(4-fluorobenzyl)-N-(1-methylpiperidin-4-yl)acetamide], under setting [1], the Emax is 129%. Under setting [2], the IC50 was 15.8 nM.

Consider `COc1ccc(CC(=O)N(CCCc2ccccc2)C2CCN(C)CC2)cc1` [Example 50ELH65, 2-(4-Methoxyphenyl)-N-(3-phenyl-1-propyl)-N-(1-methylpiperidin-4-yl)acetamide], for which the Emax under setting [1] stood at 92%. Also, under setting [2], the IC50 is 12.6 nM.

`COc1ccc(CC(=O)N(CCc2ccc(C)cc2)C2CCN(C)CC2)cc1` [Example 50ELH68, 2-(4-Methoxyphenyl)-N-[2-(4-methylphenyl)ethyl)-N-(1-methylpiperidin-4-yl)acetamide]: the Emax under setting [1] was determined as 96%. For the same compound, the IC50 under setting [2] was 3.98 nM.

For the compound `COc1ccc(CC(=O)N(Cc2ccc(C)cc2)C2CCN(CCCn3c(=O)[nH]c4ccccc43)CC2)cc1` [Example 50ELH89, 2-(4-Methoxyphenyl)-N-(4-methylbenzyl)-N-(1-(3-(1,3-dihydro-2H-benzimidazol-2-one-1-yl)propyl)piperidine-4-yl)acetamide], the Emax (read-out: Percent Efficacy) came to 111%. The compound also showed an IC50 (pIC50, Table 3) of 0.2 nM.

For `COc1ccc(CC(=O)N(CCc2ccc(F)cc2)C2CCN(C)CC2)cc1` [Example 50ELH93A, 2-(4-Methoxyphenyl)-N-(2-4-(fluorophenyl)ethyl)-N-(1-methylpiperidin-4-yl)acetamide], the Emax under setting [1] came to 106%. In addition, the IC50 under setting [2] is 2 nM.

On to `COc1ccc(CC(=O)N(CCc2cccc(Cl)c2)C2CCN(C)CC2)cc1` [Example 50ELH93E, 2-(4-Methoxyphenyl)-N-[2-(3-chlorophenyl)ethyl]-N-(1-methylpiperidin-4-yl)acetamide], for which the Emax under setting [1] stood at 72%. Further, the IC50 under setting [2] was 7.94 nM.

As for `COc1ccc(CCN(C(=O)Cc2ccc(OC)cc2)C2CCN(C)CC2)cc1` [Example 50ELH95B, 2-(4-Methoxyphenyl)-N-[2-(4-methoxyphenyl)ethyl]-N-(1-methylpiperidin-4-yl)acetamide], the Emax under setting [1] was determined as 119%. The IC50 under setting [2] was 10 nM.

Regarding `COc1ccc(CC(=O)N(Cc2ccc(C)cc2)C2CCN(C)CC2)cc1O` [Example 57MBT12B, N-((4-methylphenyl)methyl)-N-(1-methylpiperidin-4-yl)-2-(3-hydroxy-4-methoxyphenyl)acetamide], the Emax under setting [1] was 75%. For the same compound, the IC50 under setting [2] was 20 nM.

For the compound `COc1ccc(CC(=O)N(Cc2ccc(C)c(O)c2)C2CCN(C)CC2)cc1` [Example 57MBT54B, N-((3-hydroxy-4-methylphenyl)methyl)-N-(1-methylpiperidin-4-yl)-2-(4-methoxyphenyl)acetamide], the Emax under setting [1] is 95%. The IC50 under setting [2] is 12.6 nM.

Regarding `Cc1ccc(CC(=O)N(Cc2ccc(C)cc2)C2CCN(C)CC2)cc1` [Example 57MBT62B, N-((4-methylphenyl)methyl)-N-(1-methylpiperidin-4-yl)-2-(4-methylphenyl)ace tamide hydrochloride], the Emax (read-out: Percent Efficacy) stood at 119%. In addition, under setting [2], the IC50 was 12.6 nM.

For `Cc1ccc(CN(C(=O)Cc2ccc(Br)cc2)C2CCN(C)CC2)cc1` [Example 57MBT70-1D, N-((4-methylphenyl)methyl)-N-(1-methylpiperidin-4-yl)-2-(4-bromophenyl)acetamide hydrochloride], the Emax (read-out: Percent Efficacy) was 120%. Also, the IC50 under setting [2] is 12.6 nM.

As for `Cc1ccc(CN(C(=O)Cc2ccc(I)cc2)C2CCN(C)CC2)cc1` [Example 57MBT70-2D, N-((4-methylphenyl)methyl)-N-(1-methylpiperidin-4-yl)-2-(4-iodophenyl)acetamide hydrochloride], the Emax (read-out: Percent Efficacy) stood at 105%. Further, the IC50 under setting [2] is 6.31 nM.

As to `Cc1ccc(CN(C(=O)Cc2ccc(C(C)C)cc2)C2CCN(C)CC2)cc1` [Example 57MBT70-3D, N-((4-methylphenyl)methyl)-N-(1-methylpiperidin-4-yl)-2-(4-(2-propyl)phenylacetamide hydrochloride], the Emax under setting [1] came to 87%. Further, the IC50 (pIC50, Table 3) was 1.26 nM.

Regarding `Cc1ccc(CN(C(=O)Cc2ccc(OC(F)(F)F)cc2)C2CCN(C)CC2)cc1` [Example 57MBT70-4D, N-((4-methylphenyl)methyl)-N-(1-methylpiperidin-4-yl)-2-(4-trifluoromethoxyphenyl)acetamide hydrochloride], where the note is “read-out: Percent Efficacy”, the Emax was 98%. Also, under setting [2], the IC50 was 3.16 nM.

As for `COc1ccc(CC(=O)N(Cc2ccc(C)cc2)C2CCN(C)CC2)cc1C` [Example 57MBT70-8D, N-((4-methylphenyl)methyl)-N-(1-methylpiperidin-4-yl)-2-(4-methoxy-3-methylphenyl)acetamide hydrochloride], the Emax (read-out: Percent Efficacy) came to 119%. For the same compound, the IC50 under setting [2] was 20 nM.

In the case of `COc1ccc(CNC(=O)N(Cc2ccc(C)cc2)C2CCN(C(C)(C)C)CC2)cc1` [Example 58AKU-3, N-(4-Methylbenzyl)-N-(1-t-butylpiperidin-4-yl)-N′-(4-methoxybenzyl)carbamide], the Emax under setting [1] came out at 111%. Under setting [2], the IC50 was 7.94 nM.

As to `CCOc1ccc(CC(=O)N(Cc2ccc(C)cc2)C2CCN(C)CC2)cc1` [Example 58AKU-4, 2-(4-Ethoxyphenyl)-N-(4-methylbenzyl)-N-(1-methylpiperidin-4-yl)acetamide], the Emax under setting [1] was 110%. Moreover, the IC50 under setting [2] was 0.251 nM.

`CCCCOc1ccc(CC(=O)N(Cc2ccc(C)cc2)C2CCN(C)CC2)cc1` [Example 58AKU-5, 2-(4-Butoxyphenyl)-N-(4-methylbenzyl)-N-(1-methylpiperidin-4-yl)acetamide]: the Emax under setting [1] was found to be 99%. The IC50 under setting [2] is 0.316 nM.

Regarding `Cc1ccc(CN(C(=O)Cc2ccc(OC(C)C)cc2)C2CCN(C)CC2)cc1` [Example 58AKU-6, 2-(4-i-Propoxyphenyl)-N-(4-methylbenzyl)-N-(1-methylpiperidin-4-yl)acetamide], under setting [1], the Emax is 101%. The IC50 under setting [2] is 0.158 nM.

Regarding `COc1ccc(CC(=O)N(Cc2ccc(C)cc2)C2CCN(Cc3csc(C)n3)CC2)cc1` [Example 63ELH1A, 2-(4-Methoxyphenyl)-N-(4-methylbenzyl)-N-[1-(2-methylthiazol-4-ylmethyl)piperidin-4-yl]acetamide], for the setting “read-out: Percent Efficacy”, the Emax is 104%. In addition, the IC50 (pIC50, Table 3) is 5.01 nM.

Turning to `CCOc1ccc(CC(=O)N(CCc2ccc(F)cc2)C2CCN(C)CC2)cc1` [Example 63ELH20, 2-(4-ethoxyphenyl)-N-[2-(4-fluorophenyl)ethyl]-N-(1-methylpiperidin-4-yl)acetamide], the Emax under setting [1] was determined as 95%. Moreover, the IC50 under setting [2] was 1 nM.
